Measured values as given in patent US20090220528A1, “Stimulation of Toll-Like Receptors on T Cells” (THE TRUSTEES OF THE UNIVERISTY OF PENNSYLVANIA CNETER FOR …, priority 2005, published 2009).

Experiments:
Type in all cases: cell-based, mouse
[1] = test system: Foxp3+GFP+ and Foxp3-GFP- T cells; assay: Foxp3 expression (GFP reporter) and IL-6 production in Foxp3+ and Foxp3- T cells under stimulation; details: stimulation with anti-CD3 and anti-CD28 antibodies and TGF-b, with additions (FIG. 22)
Experimental: In order to study the effect of stimulation conditions on Foxp3 expression, T cells were from mice having a reporter construct introduced into the FOXP3 locus (Betteli et al., 2006, Nature 441:235-238) by sorting cells based on the GFP-reporter construct. The reporter construct expresses both Fox3p and the fluorescent protein GFP. T cells that are Foxp3^− (i.e. GFP^−) and T cells that are Foxp3^+ (i.e. GFP^+) were isolated (FIG. 21A). Foxp3 expression was then assessed under different stimulation conditions, […]

[2] = test system: activated CD4+ T cells; assay: Effect of signaling inhibitors on TLR ligand-mediated survival; details: for effect on poly(I:C)- or CpG DNA-enhanced activated CD4+ T cell survival: dose dependent (FIG. 4A)
Experimental: TLR ligands used in all experiments were dissolved in PBS except for PGN, which was solubilized in PBS with 0.02% ethanol. SB203580, U0126, NEMO-binding domain peptide (NBD), and NBD-C were all dissolved in DMSO and purchased from Calbiochem (La Jolla, Calif.).
Therefore, the next set of experiments were designed to assess whether MAPK p38 or ERK 1/2 activation is necessary for TLR ligand-mediated survival in activated CD4^+ T cells. The ERK1/2 activation inhibitor U0126 or the MAPK p38 inhibitor SB203580 was added to TLR ligand-treated activated CD4^+ T cells and viability was assessed.

[3] = test system: activated CD4+ T cells; assay: Survival of activated CD4+ T cells treated with TLR ligands (7-AAD/annexin exclusion)
Experimental: All CD4^+ T cell activation was conducted in complete culture medium composed of RPMI 1640 (Life Technologies, Grand Island, N.Y.), 1.5 μM 2-ME (Sigma-Aldrich, St. Louis, Mo.), 50 μg/ml gentamicin (Life Technologies), and 10% FCS (Mediatech, Washington, D.C.) at 37° C. in 5% CO2. Purified CD4^+ T cells from either BALB/c, MyD88^−/−, or MyD88^+/+ wild-type control littermates were activated on 24-well plates (Costar, Cambridge, Mass.) coated with 1.0 μg/ml CD3ε monoclonal antibody (2C11; BD Biosciences) and 1.0 μg/ml CD28 monoclonal antibody (37.51; BD Biosciences) for 16 hours. In experiments with DO11.10 mice, 1 μg/ml of pOVA, a peptide derived from chicken albumin amino acid residues […] was added to 2×10^6/ml erythrocyte-depleted splenocyte and lymph node cell pools for 16 hours. Following pOVA-induced activation, CD4^+ T cell APC complexes were disrupted with 5 mM EDTA/PBS for 10 minutes at 25° C., washed twice in PBS, and purified with magnetic beads using the MACS CD4^+ T cell isolation kit as described elsewhere herein. Purity of activated DO11.10 CD4^+ T cells exceeded 96%. As described elsewhere herein, the remainder of the contaminants by FACS analysis were CD8^+ T cells, with APCs at <0.1% by RT-PCR.
Following activation, purified CD4^+ T cells were washed twice in PBS and replated in culture medium at 10^6/ml. Cultures were left untreated or treated with either TLR ligands and/or inhibitors for indicated times and concentrations. Following incubation, CD4^+ T cells were washed twice in PBS/2% FBS and stained with CD4-allophycocyanin monoclonal antibody and 7-aminoactinomycin D (7-AAD; BD PharMingen) or annexin (BD PharMingen) and survival was assessed by exclusion of either of these two stains. For absolute live cell counts 50,000 CD45.1^+ splenocytes labeled with anti-CD45.1-PE monoclonal antibody (A20; BD PharMingen) were also added to stained CD4^+ T cell sample FACS tubes just before FACS analysis. Live CD4^+ T cell counts were calculated by taking the ratio of the number of CD4^+CD45.1^−7-ADD^− events collected to the number CD45.1^+ events collected and multiplying by 50,000. Proliferation was measured by CFSE dye dilution as previously described (Wells et al., 1997 J. Clin. Invest. 100:3173).
TLR ligands directly promote the survival of several cell types including neutrophils, DC, and B cells (Lundqvist et al., 2002, Cancer Immunol. Immunother. 51:139; Sabroe et al., 2003, J. Immunol. 170:5268; Grillot et al., 1996, J. Exp. Med. 183:381; Grillot et al., 1996, J. Exp. Med. 183:381). Since it was observed that activated CD4^+ T cells also express TLRs and signal in response to TLR ligands, the next set of experiments were designed to assess whether TLR ligands could directly enhance survival of these cells. DO11.10 CD4^+ T cells, that encode a transgenic TCR specific for a peptide derived from chicken OVA (pOVA), were activated with pOVA-pulsed APCs for 16 hours ex vivo, purified by magnetic beads to remove all non-CD4^+ T cells, and replated in unsupplemented culture medium in the absence or presence of TLR ligands. Survival was then assessed 72 hours following activation (FIG. 3A). Poly(I:C) or CpG DNA induced increases of activated CD4^+ T cell survival from 38% to 71 and 73%, respectively.

TGF-b was tested, and the “Foxp3 expression in Foxp3-GFP- cells (non-regulatory T cells)” value [1] was “promoted Foxp3 expression”.
`N#CC(=C(/N)Sc1ccccc1N)/C(C#N)=C(\N)Sc1ccccc1N` [U0126] was tested, and the “overall survival rates of TLR-treated activated CD4+ T cells” value ([2]; concentration of 10 μM) was “small increase” and the “effect on poly(I:C)- or CpG DNA-enhanced activated CD4+ T cell survival” value [2] was “neither U0126 or SB203580 treatment decreased”.
In the case of `C[S+]([O-])c1ccc(-c2nc(-c3ccncc3)c(-c3ccc(F)cc3)[nH]2)cc1` (stereo not shown) [SB203580], the “effect on poly(I:C)- or CpG DNA-enhanced activated CD4+ T cell survival” value [2] is reported as “neither U0126 or SB203580 treatment decreased”.
In the case of “IL-6: cytokine added to the stimulation conditions”, the “Foxp3 expression in Foxp3-GFP- cells (non-regulatory T cells)” value [1] is reported as “blocked the induction of Foxp3”.
For poly(C), the “effect on activated CD4+ T cell survival (dose response)” value ([3]; FIG. 3B, purified activated CD4+ T cells) was “no significant effect”.
IFN-α was tested, and the “activated CD4+ T cell survival” value ([3]; 72 hours following activation, DO11.10 CD4+ T cells activated with pOVA-pulsed APCs, purified, untreated 38% (FIG. 3A)) was 67%.
